Source: patent US20130149415A1, “Use of manganese for enhancing the growth of L.casei in mixed cultures” (priority 2010, published 2013)
Like-named read-outs stand apart in the source and are kept apart here.

How the values were obtained:
[1] = tested on: Lactobacillus casei subsp. paracasei DN-114 121; experiment: Cell count of Lactobacillus casei subsp. paracasei co-cultured with yogurt ferments in dairy medium; format: cell-based; details: for ratio count.Mn/count. J + 1 / ratio count.Mn/count. J + 3: Mn 20 mg/L vs without Mn; for Count ufc/ml at +10° C. J + 1 / Count ufc/ml at +10° C. J + 3: Mn 20 mg/L
Description: Medium A and medium B are inoculated with Lactobacillus casei subsp. paracasei DN-114 121 (3.80×10^7 CFU/ml), and a yogurt ferment (DN 542 142) consisting of: Streptococcus thermophilus DN-001 640 (10^6 CFU/ml), Streptococcus thermophilus DN-001 336 (2. 10^6 CFU/ml), Streptococcus thermophilus DN-001 236 (7. 10^5 CFU/ml) and Lactobacillus bulgaricus DN-100 290 (10^5 CFU/ml).
Fermentation was conducted at 36° C., and monitored by measuring the decrease of pH in the culture medium. Fermentation was stopped by transferring the preparation at 4° C. when a target pH of 4.6 was reached.
(§1) The population of Lactobacillus casei subsp. paracasei, was evaluated at J+3 by cell count analysis. Cell count analysis was performed by serial dilutions of the fermented medium with tryptone salt solution, and plating on Petri dishes with appropriate agar medium: MRS Agar containing 1.5 g/l of BactoOXGALL (DIFCO) for Lactobacillus casei.
(§2) Petri dishes were incubated at 37° C. during 96 H in anaerobic conditions (5% CO2).
Two yogurt ferments were tested in combination with Lactobacillus casei: DN 542 142 described above, and DN 543 043, consisting of a strain of Streptococcus thermophilus (DN-.001 171) and a strain of Lactobacillus bulgaricus (DN-100 182).
Lactobacillus casei subsp. paracasei DN-114 121 was inoculated at 3.8 10^7 CFU/ml.
DN 542 142 was inoculated at 10^6 CFU/ml for Streptococcus thermophilus DN-001 640; 2.10^6 CFU/ml for Streptococcus thermophilus DN-001 336; 7.10^5 CFU/ml for Streptococcus thermophilus DN-001 236, and 10^5 CFU/ml for Lactobacillus bulgaricus DN-100 290.
DN 543 043 was inoculated at 2.10^6 CFU/ml for Streptococcus thermophilus DN-001 171; and 7.10^4 CFU/ml for Lactobacillus bulgaricus DN-100 182.
Fermentation was conducted at 36° C., and monitored by measuring the decrease of pH in the culture medium. Fermentation was stopped by transferring the preparation at 4° C. when a target pH of about 4.6 (in the case of the co-culture with the yogurt ferment DN 542 142), or of about 4.45 (in the case of the co-culture with the yogurt ferment DN 543 043) was reached.
The population of Lactobacillus casei subsp. paracasei was evaluated after 1 day (J+1) and 3 days (J+3) incubation at 10° C.
(§3) The same experimentations as in Example 1 were performed with co-cultures of Lactobacillus casei subsp. paracasei DN-114 121 or Lactobacillus casei subsp. rhamnosus DN-116 010 with the yogurt ferment DN 543 043 described above, or the yogurt ferment DN 522 044, consisting of a strain of Streptococcus thermophilus (DN-001 143), Streptococcus thermophilus (DN-001 257) and a strain of Lactobacillus lactis (DN-111 224).
(§4) Fermentation was conducted at 36° C., and monitored by measuring the decrease of pH in the culture medium. Fermentation was stopped by transfering the preparation at 4° C. when a target pH of about 4.6 was reached.
(§5) The population of Lactobacillus casei subsp. paracasei was evaluated after 1 day (J+1) incubation at 10° C.

[2] = tested on: Lactobacillus casei subsp. rhamnosus DN-116 010; details: for paracasei ou rhamnosus count. num. Mn/count. J + 1 / Count ufc/ml at +10° C. Count. J + 1 paracasei ou rhamnosus: 543 043 + 116 010
Description: as §1, §2, §3
Lactobacillus casei subsp. rhamnosus DN-116 010 was inoculated at 5.8 10^7. CFU/ml.
DN 543 043 was inoculated at 2 10^6 CFU/ml for Streptococcus thermophilus DN-001 171; and 7 10^4 CFU/ml for Lactobacillus bulgaricus DN-100 182.
as §4, §5

[3] = tested on: Streptococcus thermophilus and Lactobacillus bulgaricus; experiment: Acidification kinetics of the co-cultures (monitoring of yogurt bacteria growth by pH decrease); format: cell-based
Description: The populations of Streptococcus thermophilus and Lactobacillus bulgaricus were not evaluated by cell counts, but by the evaluation of the acidification kinetics. It is well known that Streptococcus thermophilus and Lactobacillus bulgaricus grow faster in milk than L. casei and their lactic acid productions are directly correlated to their growth. Also, in the present invention, the monitoring of acidification corresponds to the monitoring of Streptococcus thermophilus and Lactobacillus bulgaricus growth.

[4] = addition of 20 mg/l of manganese, Example 1 co-cultures (DN 542 142 or DN 543 043 + DN-114 121)

monohydrate manganese sulfate [Mn]
paracasei ou rhamnosus count. num. Mn/count. J + 1 ([1]; 522 044 + 114 121, 20 mg/L Mn vs 0 mg/L Mn): 2.3 | Count ufc/ml at +10° C. Count. J + 1 paracasei ou rhamnosus ([1]; 522 044 + 114 121, 20 mg/L Mn): 3.25E+08 ufc/ml | ratio count.Mn/count. J + 1 ([1]; 542 142 + 114 121): 1.9 | ratio count.Mn/count. J + 3 ([1]; 542 142 + 114 121): 1.7 | Count ufc/ml at +10° C. J + 1 ([1]; 542 142 + 114 121): 1.15E+08 ufc/ml | Count ufc/ml at +10° C. J + 3 ([1]; 542 142 + 114 121): 1.61E+08 ufc/ml | paracasei ou rhamnosus count. num. Mn/count. J + 1 ([1]; 543 043 + 114 121, 0.5 mg/L Mn vs 0 mg/L Mn): 2.2 | Count ufc/ml at +10° C. Count. J + 1 paracasei ou rhamnosus ([1]; 543 043 + 114 121, 0.5 mg/L Mn): 2.99E+08 ufc/ml | paracasei ou rhamnosus count. num. Mn/count. J + 1 ([1]; 543 043 + 114 121, 20 mg/L Mn vs 0 mg/L Mn): 2.3 | Count ufc/ml at +10° C. Count. J + 1 paracasei ou rhamnosus ([1]; 543 043 + 114 121, 20 mg/L Mn): 3.13E+08 ufc/ml | paracasei ou rhamnosus count. num. Mn/count. J + 1 ([1]; 543 043 + 114 121, 60 mg/L Mn vs 0 mg/L Mn): 2.4 | Count ufc/ml at +10° C. Count. J + 1 paracasei ou rhamnosus ([1]; 543 043 + 114 121, 60 mg/L Mn): 3.25E+08 ufc/ml | ratio count.Mn/count. J + 1 ([1]; 543 043 + 114 121): 1.9 | ratio count.Mn/count. J + 3 ([1]; 543 043 + 114 121): 2.1 | Count ufc/ml at +10° C. J + 1 ([1]; 543 043 + 114 121): 2.70E+08 ufc/ml | Count ufc/ml at +10° C. J + 3 ([1]; 543 043 + 114 121): 3.00E+08 ufc/ml | effect on the population of the bacteria of the L. casei group ([1]; Example 2, Lactobacillus casei ssp paracasei, 0.5, 20, 60 mg/l manganese): selectively increases the population | effect on the population of Lactobacillus casei [1, 4]: selectively increases the population of Lactobacillus casei | paracasei ou rhamnosus count. num. Mn/count. J + 1 ([2]; 20 mg/L Mn vs 0 mg/L Mn): 1.3 | Count ufc/ml at +10° C. Count. J + 1 paracasei ou rhamnosus ([2]; 20 mg/L Mn): 3.20E+08 ufc/ml | paracasei ou rhamnosus count. num. Mn/count. J + 1 ([2]; 60 mg/L Mn vs 0 mg/L Mn): 1.3 | Count ufc/ml at +10° C. Count. J + 1 paracasei ou rhamnosus ([2]; 60 mg/L Mn): 3.30E+08 ufc/ml | effect on the population of the bacteria of the L. casei group ([2]; Example 2, Lactobacillus casei ssp rhamnosus, 20, 60 mg/l manganese): selectively increases the population | effect on the acidification kinetics of the co-cultures ([3]; Example 2 co-cultures, 0.5, 20, 60 mg/l manganese): no effect | effect on the acidification kinetics of the co-cultures [3, 4]: no effect
